How the values were obtained:
Experiment in all cases: cells
Format in all cases: functional, cell-based, Homo sapiens
OVCAR-8 = conditions: Homo sapiens, OVCAR-8;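 note: growth inhibition of human OVCAR-8 cells, read out by a cell viability assay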
Description: SANGER: Inhibition of human OVCAR-8 cell growth in a cell viability assay.

ChaGo-K-1 = conditions: Homo sapiens, ChaGo-K-1;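 note: growth inhibition of ChaGo-K-1 cells, read out with a cell viability assay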
Description: SANGER: Inhibition of human ChaGo-K-1 cell growth in a cell viability assay.

SW626 = conditions: Homo sapiens, SW626;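 note: growth inhibition of SW626 cells, measured with a cell viability assay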
Description: SANGER: Inhibition of human SW626 cell growth in a cell viability assay.

KYSE-510 = conditions: Homo sapiens, KYSE-510;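 note: cell viability readout used to measure how strongly growth of the cell line is suppressed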
Description: SANGER: Inhibition of human KYSE-510 cell growth in a cell viability assay.

MEL-HO = conditions: Homo sapiens, MEL-HO
Description: SANGER: Inhibition of human MEL-HO cell growth in a cell viability assay.

NCI-H1651 = conditions: Homo sapiens, NCI-H1651;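 note: Read-out is a cell viability assay, with IC50 expressing inhibition of NCI-H1651 cell growth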
Description: SANGER: Inhibition of human NCI-H1651 cell growth in a cell viability assay.

KOSC-2 = conditions: Homo sapiens, KOSC-2;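 note: growth inhibition of KOSC-2 cells, read out by a cell viability assay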
Description: SANGER: Inhibition of human KOSC-2 cell growth in a cell viability assay.

KYSE-180 = conditions: Homo sapiens, KYSE-180;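 note: growth inhibition of KYSE-180 cells, read out with a cell viability assay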
Description: SANGER: Inhibition of human KYSE-180 cell growth in a cell viability assay.

Daoy = conditions: Homo sapiens, Daoy;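 note: daoy cell growth inhibition, read out as cell viability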
Description: SANGER: Inhibition of human Daoy cell growth in a cell viability assay.

NCI-H522 = conditions: Homo sapiens, NCI-H522;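 note: cell viability assay measuring growth inhibition of human NCI-H522 cells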
Description: SANGER: Inhibition of human NCI-H522 cell growth in a cell viability assay.

647-V = conditions: Homo sapiens, 647-V;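 note: growth inhibition of 647-V cells, read out with a cell viability assay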
Description: SANGER: Inhibition of human 647-V cell growth in a cell viability assay.

HCT-116 = conditions: Homo sapiens, HCT-116
Description: SANGER: Inhibition of human HCT-116 cell growth in a cell viability assay.

U-118-MG = conditions: Homo sapiens, U-118-MG
Description: SANGER: Inhibition of human U-118-MG cell growth in a cell viability assay.

HPAF-II = conditions: Homo sapiens, HPAF-II;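 note: growth inhibition of HPAF-II cells, read out with a cell viability assay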
Description: SANGER: Inhibition of human HPAF-II cell growth in a cell viability assay.

HCC1806 = conditions: Homo sapiens, HCC1806;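 note: growth inhibition of the cancer cell line, determined with a cell viability assay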
Description: SANGER: Inhibition of human HCC1806 cell growth in a cell viability assay.

SNU-423 = conditions: Homo sapiens, SNU-423
Description: SANGER: Inhibition of human SNU-423 cell growth in a cell viability assay.

PFSK-1 = conditions: Homo sapiens, PFSK-1;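 note: cell viability assay measuring how strongly compounds suppress growth of human PFSK-1 cells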
Description: SANGER: Inhibition of human PFSK-1 cell growth in a cell viability assay.

HN = conditions: Homo sapiens, HN
Description: SANGER: Inhibition of human HN cell growth in a cell viability assay.

KYSE-70 cell line = conditions: Homo sapiens, KYSE-70;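 note: cell viability assay read-out, with IC50 expressing suppression of KYSE-70 cell growth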
Description: SANGER: Inhibition of human KYSE-70 cell growth in a cell viability assay.

SF-295 = conditions: Homo sapiens, SF-295;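 note: growth inhibition of SF-295 cells, read out with a cell viability assay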
Description: SANGER: Inhibition of human SF295 cell growth in a cell viability assay.

SK-OV-3 = conditions: Homo sapiens, SK-OV-3;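 note: growth inhibition of SK-OV-3 human cells, read out with a cell viability assay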
Description: SANGER: Inhibition of human SK-OV-3 cell growth in a cell viability assay.

SNU-449 = conditions: Homo sapiens, SNU-449
Description: SANGER: Inhibition of human SNU-449 cell growth in a cell viability assay.

M059J = conditions: Homo sapiens, M059J;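 note: growth inhibition of M059J cells, read out with a cell viability assay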
Description: SANGER: Inhibition of human M059J cell growth in a cell viability assay.

KYSE-520 cell line = conditions: Homo sapiens, KYSE-520;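 note: growth inhibition of human KYSE-520 cells, read out with a viability assay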
Description: SANGER: Inhibition of human KYSE-520 cell growth in a cell viability assay.

S-117 = conditions: Homo sapiens, S-117
Description: SANGER: Inhibition of human S-117 cell growth in a cell viability assay.

YKG-1 = conditions: Homo sapiens, YKG-1;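 note: cell growth inhibition, read out with a viability assay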
Description: SANGER: Inhibition of human YKG-1 cell growth in a cell viability assay.

COLO-678 = conditions: Homo sapiens, COLO-678
Description: SANGER: Inhibition of human COLO-678 cell growth in a cell viability assay.

TCC-SUP = conditions: Homo sapiens, TCC-SUP;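 note: growth inhibition of TCC-SUP cells, read out with a cell viability assay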
Description: SANGER: Inhibition of human TCCSUP cell growth in a cell viability assay.

Hs-578T = conditions: Homo sapiens, Hs-578T
Description: SANGER: Inhibition of human Hs-578-T cell growth in a cell viability assay.

NCI-H1755 = conditions: Homo sapiens, NCI-H1755;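 note: cell viability readout used to measure growth inhibition of NCI-H1755 cells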
Description: SANGER: Inhibition of human NCI-H1755 cell growth in a cell viability assay.

COLO-741 = conditions: Homo sapiens, COLO-741
Description: SANGER: Inhibition of human COLO-741 cell growth in a cell viability assay.

SK-MEL-28 = conditions: Homo sapiens, SK-MEL-28;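 note: growth inhibition of human SK-MEL-28 cells, read out with a cell viability assay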
Description: SANGER: Inhibition of human SK-MEL-28 cell growth in a cell viability assay.

G-361 = conditions: Homo sapiens, G-361

SMILES: Cn1cnc2c(F)c(Nc3ccc(Br)cc3Cl)c(C(=O)NOCCO)cc21 [SELUMETINIB]
- IC50 (OVCAR-8): > 4 µM
- IC50 (ChaGo-K-1): > 4 µM
- IC50 (SW626): > 4 µM
- IC50 (KYSE-510): > 4 µM
- IC50 (MEL-HO): 0.139 µM
- IC50 (NCI-H1651): > 4 µM
- IC50 (KOSC-2): > 4 µM
- IC50 (KYSE-180): > 4 µM
- IC50 (Daoy): > 4 µM
- IC50 (NCI-H522): > 4 µM
- IC50 (647-V): > 4 µM
- IC50 (HCT-116): 1.06 µM
- IC50 (U-118-MG): > 4 µM
- IC50 (HPAF-II): 3.34 µM
- IC50 (HCC1806): > 4 µM
- IC50 (SNU-423): > 4 µM
- IC50 (PFSK-1): > 4 µM
- IC50 (HN): 1 µM
- IC50 (KYSE-70 cell line): > 4 µM
- IC50 (SF-295): > 4 µM
- IC50 (SK-OV-3): > 4 µM
- IC50 (SNU-449): > 4 µM
- IC50 (M059J): > 4 µM
- IC50 (KYSE-520 cell line): > 4 µM
- IC50 (S-117): > 4 µM
- IC50 (YKG-1): > 4 µM
- IC50 (COLO-678): 1.62 µM
- IC50 (TCC-SUP): > 4 µM
- IC50 (Hs-578T): > 4 µM
- IC50 (NCI-H1755): > 4 µM
- IC50 (COLO-741): 0.531 µM

SMILES: CCN(CC)CCCCNc1ncc2cc(-c3cc(OC)cc(OC)c3)c(NC(=O)NC(C)(C)C)nc2n1 [PD-173074]
- IC50 (OVCAR-8): > 2 µM
- IC50 (ChaGo-K-1): > 2 µM
- IC50 (SW626): > 2 µM
- IC50 (KYSE-510): > 2 µM
- IC50 (MEL-HO): > 2 µM
- IC50 (NCI-H1651): > 2 µM
- IC50 (KOSC-2): > 2 µM
- IC50 (KYSE-180): > 2 µM
- IC50 (Daoy): > 2 µM
- IC50 (NCI-H522): > 2 µM
- IC50 (647-V): > 2 µM
- IC50 (HCT-116): > 2 µM
- IC50 (U-118-MG): > 2 µM
- IC50 (HPAF-II): > 2 µM
- IC50 (HCC1806): > 2 µM
- IC50 (SNU-423): > 2 µM
- IC50 (PFSK-1): > 2 µM
- IC50 (HN): > 2 µM
- IC50 (KYSE-70 cell line): > 2 µM
- IC50 (SF-295): > 2 µM
- IC50 (SK-OV-3): > 2 µM
- IC50 (SNU-449): > 2 µM
- IC50 (M059J): > 2 µM
- IC50 (KYSE-520 cell line): > 2 µM
- IC50 (S-117): > 2 µM
- IC50 (YKG-1): > 2 µM
- IC50 (COLO-678): > 2 µM
- IC50 (TCC-SUP): > 2 µM
- IC50 (Hs-578T): > 2 µM
- IC50 (SK-MEL-28): > 2 µM
- IC50 (NCI-H1755): > 2 µM
- IC50 (COLO-741): > 2 µM

SMILES: Cc1cn(-c2cc(NC(=O)c3ccc(C)c(Nc4nccc(-c5cccnc5)n4)c3)cc(C(F)(F)F)c2)cn1 [NILOTINIB]
- IC50 (OVCAR-8): > 2 µM
- IC50 (ChaGo-K-1): > 2 µM
- IC50 (SW626): > 2 µM
- IC50 (KYSE-510): > 2 µM
- IC50 (MEL-HO): > 2 µM
- IC50 (NCI-H1651): > 2 µM
- IC50 (KOSC-2): > 2 µM
- IC50 (KYSE-180): > 2 µM
- IC50 (Daoy): > 2 µM
- IC50 (647-V): > 2 µM
- IC50 (HCT-116): > 2 µM
- IC50 (U-118-MG): > 2 µM
- IC50 (HPAF-II): > 2 µM
- IC50 (HCC1806): > 2 µM
- IC50 (SNU-423): > 2 µM
- IC50 (PFSK-1): > 2 µM
- IC50 (HN): > 2 µM
- IC50 (KYSE-70 cell line): > 2 µM
- IC50 (SF-295): > 2 µM
- IC50 (SK-OV-3): > 2 µM
- IC50 (G-361): > 2 µM
- IC50 (SNU-449): > 2 µM
- IC50 (M059J): > 2 µM
- IC50 (KYSE-520 cell line): > 2 µM
- IC50 (S-117): > 2 µM
- IC50 (YKG-1): > 2 µM
- IC50 (COLO-678): > 2 µM
- IC50 (TCC-SUP): > 2 µM
- IC50 (Hs-578T): > 2 µM
- IC50 (SK-MEL-28): > 2 µM
- IC50 (NCI-H1755): > 2 µM
- IC50 (COLO-741): > 2 µM

SMILES: Nc1cccc2c1CN(C1CCC(=O)NC1=O)C2=O (configuration not stated) [LENALIDOMIDE]
- IC50 (OVCAR-8): > 5 µM
- IC50 (ChaGo-K-1): > 5 µM
- IC50 (SW626): > 5 µM
- IC50 (KYSE-510): > 5 µM
- IC50 (MEL-HO): > 5 µM
- IC50 (NCI-H1651): > 5 µM
- IC50 (KOSC-2): > 5 µM
- IC50 (KYSE-180): > 5 µM
- IC50 (Daoy): > 5 µM
- IC50 (647-V): > 5 µM
- IC50 (HCT-116): > 5 µM
- IC50 (U-118-MG): > 5 µM
- IC50 (HPAF-II): > 5 µM
- IC50 (HCC1806): > 5 µM
- IC50 (SNU-423): > 5 µM
- IC50 (PFSK-1): > 5 µM
- IC50 (HN): > 5 µM
- IC50 (KYSE-70 cell line): > 5 µM
- IC50 (SF-295): > 5 µM
- IC50 (SK-OV-3): > 5 µM
- IC50 (G-361): > 5 µM
- IC50 (SNU-449): > 5 µM
- IC50 (M059J): > 5 µM
- IC50 (KYSE-520 cell line): > 5 µM
- IC50 (S-117): > 5 µM
- IC50 (YKG-1): > 5 µM
- IC50 (COLO-678): > 5 µM
- IC50 (TCC-SUP): > 5 µM
- IC50 (Hs-578T): > 5 µM
- IC50 (SK-MEL-28): > 5 µM
- IC50 (NCI-H1755): > 5 µM
- IC50 (COLO-741): > 5 µM

Reference: ChEMBL document CHEMBL1201861, “Genomics of Drug Sensitity in Cancer screening data, Wellcome Trust Sanger Institute”
